In data set [1] the test system is HeLa cells. The data set can be described thus: DCFH2-DA intracellular ROS assay. It counts as cell-based, human. How it is done: After 24 h, the cells were incubated with 100 µL of 10 µM DCFH2-DA (Sigma-Aldrich) diluted in Hank’s Balanced Salt Solution (HBSS) at 37 °C for 30 min in the dark. […] At the end of the treatment, cells were washed twice with cold phosphate-buffered saline (PBS), and 200 µL of 1% Triton X-100 in 0.3 M NaOH was added to lyse the cells.

For data set [2], the system named is HEK-293T cells. Kind of data set: MTT cytotoxicity assay. As to conditions: read-out: IC50 HEK-293T.
Experimental: (§1) Cells were seeded in 96-well plates at a density of 5 × 10^3 cells per well in 100 µL of complete DMEM and incubated overnight at 37 °C in a humidified incubator with 5% CO2. […] After 48 h of treatment, 100 µL of MTT solution (0.5 mg/mL in serum-free medium) was added to each well and incubated for an additional 3 h at 37 °C. The supernatant was then removed, and 100 µL of DMSO was added to dissolve the resulting formazan crystals. Absorbance was measured at 570 nm using an EnSight Multimode Microplate Reader (PerkinElmer, Waltham, MA, USA). IC50 values were calculated using nonlinear regression analysis in GraphPad Prism version 9.
A short description of data set [3]: Annexin V-FITC/PI apoptosis detection by flow cytometry. Particulars: human, HeLa cells.
Experimental: (§2) HeLa cells were seeded in 6-well plates at a density of 3 × 10^5 cells per well in 2 mL of complete DMEM and allowed to adhere overnight. […] Following treatment, cells were harvested by trypsinization and washed twice with 1 mL of cold phosphate-buffered saline (PBS) to remove non-adherent and dead cells. The cell pellets were resuspended in 100 µL of binding buffer and stained with 5 µL of Annexin V-FITC and 5 µL of propidium iodide (PI, 0.05 µg/mL). The staining was performed in the dark at room temperature for 15 min. Apoptotic cell death was quantified by flow cytometry, with early and late apoptotic populations distinguished based on Annexin V-FITC and PI fluorescence signals.
Data set [4] has as its system HepG2 cells. Kind of data set: MTT cytotoxicity assay. Particulars: read-out: IC50 HepG2.
Experimental: (§3) Human cervical adenocarcinoma (HeLa), hepatocellular carcinoma (HepG2) and mouse fibroblast (L929) cells were cultured in Dulbecco’s Modified Eagle’s Medium (DMEM) containing 10% fetal bovine serum (FBS), 100 U/mL penicillin G, and 100 μg/mL streptomycin. Human neuroblastoma (SH-SY5Y) cells were maintained in DMEM/F-12 medium with the same supplements. All cultures were incubated at 37 °C in a humidified atmosphere of 5% CO2.
as §1
Data set [5] deals with SH-SY5Y neuroblastoma cells. The data set can be described thus: MTT cytotoxicity assay. Particulars: 48 h, read-out: IC50 SH-SY5Y.
Experimental: as §3, §1
Data set [6] relates to L929 fibroblasts. The data set can be described thus: MTT cytotoxicity assay. As to conditions: read-out: IC50 L929.
Experimental: as §3, §1
The test system of data set [7] is HeLa cells. Kind of data set: MTT cytotoxicity assay. As to conditions: 48 h.
Experimental: as §3, §1
Data set [8] has as its target T1, JAK2 (Homo sapiens, UniProt O60674).
T1 construct: purchased Sigma-Aldrich SRP0171
The data set can be described thus: JAK2 kinase assay (ADP-Glo). In kind it is biochemical. As to conditions: 5 μM ATP, mean ± SEM, read-out: IC50, JAK2 kinase inhibition. As for the experimental part:
For each reaction, 2.5 ng/μL of JAK2 enzyme (SRP0171, Sigma-Aldrich) was combined with 1 μM of the test compounds or known drugs, 5 μM ATP, and 2 ng/μL of poly(glu·tyr) substrate in a reaction buffer containing 40 mM Tris-HCl (pH 7.5), 20 mM MgCl2, and 0.1 mg/mL BSA. The reaction mixture was incubated at room temperature for 1 h. After incubation, 5 μL of the ADP-Glo reagent was added to each reaction, followed by an additional 40 min incubation. Next, 10 μL of the kinase detection reagent was added, and the reactions were incubated at room temperature for 30 min to convert ADP to ATP. Luminescence, reflecting ATP levels, was measured using an EnSight Multimode Microplate Reader. […] All assays were performed in triplicate, and the resulting data were presented as the relative inhibition (%) of inhibitors compared to the control without any inhibitor, as shown in Equation (1).(1) %Relative inhibition=[positive−negative−sample−negative]/(positive−negative)×100

Data set [9] concerns HeLa cells. The data set can be described thus: Annexin V-FITC/PI apoptosis detection by flow cytometry.
Experimental: as §2
Setting [10] is: IC50 concentration of the compound.
Setting [11] is: HeLa, 48 h, at IC50 (SL10 8 µM, SL35 6 µM, ruxolitinib 25 µM).

“And” between values parts separate entries of the source, which are not always exact repeats. Identical values can stand only once. Like-named read-outs stand apart in the source and are kept apart here.

T1 sequence (O60674 808-1132 limits assumed): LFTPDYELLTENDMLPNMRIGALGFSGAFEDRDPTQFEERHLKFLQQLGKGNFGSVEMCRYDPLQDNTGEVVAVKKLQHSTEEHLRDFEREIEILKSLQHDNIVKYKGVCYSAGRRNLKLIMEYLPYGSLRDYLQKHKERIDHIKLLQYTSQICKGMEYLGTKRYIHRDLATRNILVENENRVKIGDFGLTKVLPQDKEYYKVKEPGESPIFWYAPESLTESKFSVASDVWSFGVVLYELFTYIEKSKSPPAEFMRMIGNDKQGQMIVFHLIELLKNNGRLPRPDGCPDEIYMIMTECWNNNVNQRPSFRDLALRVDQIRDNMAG

Consider `OO` [H2O2, hydrogen peroxide, reference compound], for which the “intracellular ROS level relative to control” value in data set [1] (200 µM) is listed as “approximately 1.7 fold”.
As for `N#CC[C@H](C1CCCC1)n1cc(-c2ncnc3[nH]ccc23)cn1` [Ruxolitinib, reference compound], the IC50 in data set [2] (Homo sapiens, HEK-293T) amounted to 89.7 ± 1.98 µM; in data set [4] (Homo sapiens, HepG2, 48 h) it was 34.6 ± 2.56 µM; in data set [5] (Homo sapiens, SH-SY5Y) it was 68.63 ± 0.19 µM; in data set [6] (Mus musculus, L929, 48 h) it was 80.4 ± 2.33 µM; in [7] (Homo sapiens, HeLa, read-out: IC50 HeLa, MTT, 48 h), 25 ± 1.3 µM; in data set [7] (read-out: IC50 HeLa, MTT), 25 ± 1.25 µM. The same compound came in with a viability at 48 h, 25 µM in data set [3] of 63.5 ± 2.17%.
As to `COc1ccc(CN2CC3C(=O)OC4CC5(C)CCCC(C)C5(O)C2C43)cc1OC` (stereo not drawn) [SL8], the IC50 in data set [2] (MTT) amounted to 90.7 ± 1.61 µM; in data set [4] (MTT, 48 h), 42.6 ± 2.14 µM; in data set [5] (MTT) it was 59.6 ± 2.84 µM; in data set [6] (MTT, 48 h), 92.6 ± 2.87 µM; in [7] (read-out: IC50 HeLa, MTT), 88.2 µM; in data set [8], 0.0871 ± 0.0026 µM.
In the case of `CC1CCCC2(C)CC3OC(=O)C(CN4CCN(c5ccccc5)CC4)C3C3OC132` (stereo not drawn) [SL10], the 50% inhibitory concentration (IC50) in data set [2] (MTT) was 14.5 ± 0.74 µM; in data set [4] (MTT, 48 h), 19.7 µM; in data set [5] (MTT), 23.1 µM; in data set [6] (MTT, 48 h), 25.4 µM; in [7] (read-out: IC50 HeLa, MTT), 8.47 ± 0.74 µM; in data set [8], 0.0127 µM. In addition, the “intracellular ROS level relative to control” value in [1] (setting [10]) is on record as “approximately 1.4 fold”. The early apoptosis in data set [9] (setting [11]) was 56.39 ± 2.21%. This compound displayed a late apoptosis in [9] (setting [11]) of 11.61 ± 0.99%. Besides, in data set [9] (setting [11]), the viable cells turned out to be 31.30 ± 2.21%.
As for `CC1CCCC2(C)CC3OC(=O)C(CN4CCN(c5ccc(F)cc5)CC4)C3C3OC132` (stereo not drawn) [SL14], the IC50 in data set [2] (MTT) amounted to 50.9 ± 3.3 µM; in data set [4] (MTT, 48 h), 27.5 ± 0.73 µM; in data set [5] (MTT), 35.8 ± 2.13 µM; in [6] (MTT, 48 h) it was 52.8 ± 1.92 µM; in data set [7] (read-out: IC50 HeLa, MTT) it was 13.2 µM; in data set [8], 0.0576 ± 0.0012 µM.
As to `Cc1cccc(N2CCN(CC3C(=O)OC4CC5(C)CCCC(C)C56OC6C43)CC2)c1` (stereo not drawn) [SL31], the IC50 in [2] (MTT) turned out to be 24.5 ± 1.12 µM; in [4] (MTT, 48 h) it was 19.62 ± 0.05 µM; in data set [5] (MTT), 24.2 ± 1.69 µM; in [6] (MTT, 48 h), 62.8 ± 3.39 µM; in data set [7] (read-out: IC50 HeLa, MTT), 13.7 µM; in [8], 0.0893 ± 0.0015 µM.
Take `CC1CCCC2(C)CC3OC(=O)C4CN(CCc5c[nH]c6ccccc56)C(C34)C12O` (stereo not drawn) [SL33]: the IC50 in data set [2] (MTT) amounted to 29.3 ± 0.96 µM; in data set [4] (MTT, 48 h) it was 45.28 ± 0.41 µM; in data set [5] (MTT), 58.6 ± 0.71 µM; in data set [6] (MTT, 48 h), 40.5 ± 2.22 µM; in data set [7] (read-out: IC50 HeLa, MTT) it was 33.8 ± 2.8 µM; in data set [7] (read-out: IC50 HeLa, MTT, listed as SLL33), 33.8 ± 2.78 µM. The IC50 in data set [8] was determined as 0.0791 ± 0.0018 µM.
Consider `CC1CCCC2(C)CC3OC(=O)C(CN4CCN(c5ncccn5)CC4)C3C3OC132` (stereo not drawn) [SL35], for which the IC50 was 14.6 ± 1.05 µM in data set [2] (MTT); 13.3 µM in data set [4] (MTT, 48 h); 19.2 µM and 19.3 µM in [5] (MTT); 23.1 µM in data set [6] (MTT, 48 h); 6.07 ± 0.11 µM in data set [7] (read-out: IC50 HeLa, MTT); 0.0217 µM and 0.0216 µM in data set [8]. The “intracellular ROS level relative to control” value in data set [1] (setting [10]) is reported as “around 2.0 fold”. In data set [9], the viable cells came to 66.19 ± 1.51%. For the same compound, in data set [9] (setting [11]), the early apoptosis turned out to be 26.30 ± 1.69%. In [9] (setting [11]), this compound came in with a late apoptosis of 5.20 ± 0.34%.
Turning to `O=C1O[C@H]([C@@H](O)CO)C(O)=C1O` [Vitamin C, L-ascorbic acid, reference compound], the “intracellular ROS level relative to control” value in [1] (200 µM) is on record as “about 0.8 fold”.
